test system: ScGT1; experiment: Inhibition of SERPINA3N in mouse GT1 cells chronically infected with RML prion (ScGT1) assessed as reduction of PrPSc levels measured by western blot analysis; assay type: cell-based; parameters: concentration or dose not given beside the values

Row | Structure (SMILES) | Activity [%]
1 | Nc1c(C(=O)C2CCN(C(=O)c3ccno3)CC2)cnn1-c1ccccc1 | 50
2 | O=C(NC1CCCOC1)c1cnn(-c2ccc(F)cc2)c1 (configuration not stated) | 50
3 | Nc1c(C(=O)c2c[nH]c3ccccc23)cnn1-c1ccccc1 | 50
4 | Cc1ccc(-n2ncc(C(=O)C3CCN(C(=O)C4CCC4)C3)c2N)cc1 (configuration not stated) | 50
5 | Cc1n[nH]c(C)c1CNC(=O)c1cnn(-c2ccc(F)cc2)c1 | 50
6 | Cc1ccc(-n2ncc(C(=O)C3CCN(C(=O)c4scnc4C)CC3)c2N)cc1 | 50
7 | CC(=O)N1CCC(C(=O)c2cnn(-c3cccc(F)c3)c2N)CC1 | 50
